Experimental findings from patent US10709707B2, “Methods of treating ocular conditions” (Oyster Point Pharma, Inc., priority 2016, dated 2020) are described below.

The structures appear in SMILES notation. Values joined by “and” are separate entries in the source; they are usually repeats but may differ in a detail not shown here. Equal values may be shown once.

Assay [1] concerns the target T1, rat ganglion receptors α3β4 (Rattus norvegicus, UniProt P04757+P12392).
T1 construct: endogenous in cells; host or cells: PC-12 cells (per the earlier reading)
In words: Receptor function ganglionic receptors (rat), PC-12 cells. As to conditions: for Emax: PC-12, Rat ganglion-type (a3b4*). Format: cell-based.

For assay [2], the target named is T2, ganglionic receptor (α3β4) (Homo sapiens, UniProt P30926+P32297).
T2 construct: endogenous in cells
T2 sequence (P32297 32-505): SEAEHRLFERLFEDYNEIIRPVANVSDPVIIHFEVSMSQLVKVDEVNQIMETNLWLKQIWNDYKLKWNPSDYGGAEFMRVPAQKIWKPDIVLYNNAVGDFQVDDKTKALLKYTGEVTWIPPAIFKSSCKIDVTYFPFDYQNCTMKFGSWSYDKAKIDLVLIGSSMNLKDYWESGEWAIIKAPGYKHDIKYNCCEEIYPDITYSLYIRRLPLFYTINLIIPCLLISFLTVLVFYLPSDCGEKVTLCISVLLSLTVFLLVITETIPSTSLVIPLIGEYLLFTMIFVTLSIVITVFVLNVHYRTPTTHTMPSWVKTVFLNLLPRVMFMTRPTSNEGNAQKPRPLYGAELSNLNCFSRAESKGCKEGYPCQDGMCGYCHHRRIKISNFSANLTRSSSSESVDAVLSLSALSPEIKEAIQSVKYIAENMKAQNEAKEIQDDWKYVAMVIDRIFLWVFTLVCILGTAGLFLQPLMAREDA
T2 sequence (P30926 22-498): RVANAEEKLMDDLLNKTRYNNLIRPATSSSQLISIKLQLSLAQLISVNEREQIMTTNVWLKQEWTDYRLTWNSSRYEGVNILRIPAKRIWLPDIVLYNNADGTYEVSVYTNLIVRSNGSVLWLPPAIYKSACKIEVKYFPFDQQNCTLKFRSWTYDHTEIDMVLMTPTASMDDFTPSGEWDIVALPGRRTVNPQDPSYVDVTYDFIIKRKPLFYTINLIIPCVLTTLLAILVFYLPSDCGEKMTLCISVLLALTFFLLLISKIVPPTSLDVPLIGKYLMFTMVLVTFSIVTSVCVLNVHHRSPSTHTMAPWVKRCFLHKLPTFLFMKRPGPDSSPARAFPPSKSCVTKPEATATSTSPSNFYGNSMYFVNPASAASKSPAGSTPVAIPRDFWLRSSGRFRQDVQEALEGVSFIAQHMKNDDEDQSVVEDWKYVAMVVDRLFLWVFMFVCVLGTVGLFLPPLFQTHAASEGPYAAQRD
The assay is described as follows: Receptor function ganglionic receptors (human), SH-SY5Y and IMR-32 cells. Format: cell-based.

Assay [3] deals with T3, α7 nicotinic acetylcholine receptor (Rattus norvegicus, UniProt Q05941).
T3 construct: from tissue; host or cells: rat brain membranes (per the earlier reading)
T3 sequence (Q05941 23-502): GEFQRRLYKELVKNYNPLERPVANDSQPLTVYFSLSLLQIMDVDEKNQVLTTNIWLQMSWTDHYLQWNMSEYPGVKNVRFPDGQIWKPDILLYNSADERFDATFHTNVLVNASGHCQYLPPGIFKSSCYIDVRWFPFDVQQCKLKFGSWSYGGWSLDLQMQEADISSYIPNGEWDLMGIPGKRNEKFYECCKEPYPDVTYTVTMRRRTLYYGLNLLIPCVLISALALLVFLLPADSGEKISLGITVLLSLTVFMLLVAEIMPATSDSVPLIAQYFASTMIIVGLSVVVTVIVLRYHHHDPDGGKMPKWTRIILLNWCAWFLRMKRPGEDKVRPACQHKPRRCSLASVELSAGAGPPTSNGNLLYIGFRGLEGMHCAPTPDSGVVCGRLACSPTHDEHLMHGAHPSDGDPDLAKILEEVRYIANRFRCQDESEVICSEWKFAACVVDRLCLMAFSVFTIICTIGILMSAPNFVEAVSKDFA
The assay is described as follows: Receptor binding α7, inhibition of [3H]-MLA binding, rat brain membranes.

[4] abbreviates: Human ganglion-type (a3b4*), Ca++ Flux.

T1 sequence (P04757 26-499): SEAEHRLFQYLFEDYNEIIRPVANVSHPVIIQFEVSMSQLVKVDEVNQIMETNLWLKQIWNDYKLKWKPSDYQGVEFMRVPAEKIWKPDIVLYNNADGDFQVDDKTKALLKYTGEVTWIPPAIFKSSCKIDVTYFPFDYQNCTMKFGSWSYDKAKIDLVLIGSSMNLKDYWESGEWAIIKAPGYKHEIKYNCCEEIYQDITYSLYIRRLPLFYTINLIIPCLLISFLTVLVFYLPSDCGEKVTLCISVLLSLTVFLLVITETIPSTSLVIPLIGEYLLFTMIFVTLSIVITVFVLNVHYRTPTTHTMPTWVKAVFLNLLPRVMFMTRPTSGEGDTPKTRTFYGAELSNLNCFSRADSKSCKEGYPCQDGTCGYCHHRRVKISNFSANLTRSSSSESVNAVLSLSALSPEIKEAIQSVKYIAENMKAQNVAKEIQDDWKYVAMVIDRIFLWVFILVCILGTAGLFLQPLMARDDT
T1 sequence (P12392 21-495): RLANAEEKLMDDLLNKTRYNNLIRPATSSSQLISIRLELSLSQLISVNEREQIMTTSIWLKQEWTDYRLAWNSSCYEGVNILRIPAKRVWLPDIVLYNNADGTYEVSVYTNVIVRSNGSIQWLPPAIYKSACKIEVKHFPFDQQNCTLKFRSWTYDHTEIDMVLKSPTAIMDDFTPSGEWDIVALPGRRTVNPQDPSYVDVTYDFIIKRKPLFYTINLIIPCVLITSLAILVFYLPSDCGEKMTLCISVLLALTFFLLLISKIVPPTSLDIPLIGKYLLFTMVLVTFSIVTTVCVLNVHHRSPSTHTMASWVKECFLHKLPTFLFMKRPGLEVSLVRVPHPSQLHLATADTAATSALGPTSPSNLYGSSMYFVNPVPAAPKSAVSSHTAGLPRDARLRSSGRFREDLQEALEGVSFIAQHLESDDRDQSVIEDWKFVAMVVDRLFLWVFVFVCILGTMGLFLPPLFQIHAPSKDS

Take `C(=C\[C@H]1CCNC1)/c1cncnc1` [Compound 1, (R)-5-((E)-2-pyrrolidin-3-ylvinyl)pyrimidine]: the Emax is 35% in assay [1] (Ca++ Flux); 19% in assay [1] (Rb+ Flux, single point); 150% in assay [2] (setting [4]); 79% in assay [2] (Rb+ Flux, IMR cells); 60% in assay [2] (SH-SY5Y, Rb+ Flux, SHSY5Y cells). The “Activity at rat ganglion receptors” value in assay [1] (PC-12 cells) is given as “receptors in PC-12 cells was low (19%)”. In addition, the EC50 in assay [1] (Rat ganglion-type (a3b4*), Ca++ Flux) amounted to 53 µM; in assay [2] (setting [4]) it was 13 µM; in assay [2] (IMR-32 cells), 22 µM; in assay [2] (Rb+ Flux, IMR cells), 22 µM; in assay [2] (Rb+ Flux, SHSY5Y cells), 18 µM; in assay [2] (SH-SY5Y cells) it was 18 µM. This molecule gave an Emax vs. nicotine in assay [2] (SH-SY5Y cells) of 60%. In assay [2] (α3β4 nicotine receptor subtype), the agonist type entry is “full agonist”. In addition, the Ki in assay [3] (Rat a7, assay and tissue type not given) was 3.5 µM; in assay [3] ([3H]-MLA, rat brain hippocampal membranes), 5.5 µM and 5.53 µM.
